Data from patent US20050282755A1, “Compositions having antimicrobial activity and uses thereof” (priority 2004, published 2005).
≈ marks a conversion by molar mass, not a printed value. Where two headings read alike, the source gives them in different places. Non-standard residues stand in square brackets, D forms with d. Residues, ends and D or L forms follow the SMILES beside them. *: point of attachment. 1Nal = N[C@@H](Cc1cccc2ccccc12)C(=O)O; Lauroyl = CCCCCCCCCCCC(=O)*; Decanoyl = CCCCCCCCCC(=O)*; Hexanoyl = CCCCCC(=O)*

Key:
Type in all cases: cell-based
[1] = test system: Staphylococcus aureus ATCC 29213; assay: MIC, NCCLS M7-A6 broth microdilution, cation-adjusted Mueller Hinton broth (Table 9, no superscript)
Method in brief: (§1)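 Log-phase bacteria were added to wells containing peptide in cation-adjusted Mueller Hinton broth at a final 5×10^5 to 1×10^6 CFU/milliliter. Plates then sat overnight at 37° C. Wells were scored visually for turbidity against a peptide-free control.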

[2] = test system: Escherichia coli ATCC 25922; assay: MIC, NCCLS M7-A6 broth microdilution (Table 9, no superscript)
Method in brief: as §1

[3] = test system: Pseudomonas aeruginosa ATCC 27853; assay: as above
Method in brief: as §1

Salmonella dublin (Lane) = assay: as above
Method in brief: as §1

[4] = test system: Staphylococcus epidermidis ATCC 12228; assay: as above
Method in brief: as §1

[5] = test system: Propionibacterium acnes ATCC 6919; assay: MIC, agar dilution method NCCLS M11-A6, Brucella agar, anaerobic (Table 9, superscript c); conditions: ATCC 6919
Method: A bacterial suspension was prepared to allow for a final inoculum on the plate of 1.5×10^8 CFU/milliliter. After the suspension absorbed into the agar surface, the plates were incubated for 48-96 hours at 37° C. in a GasPak anaerobic chamber. The lowest concentration of peptide that contained no colony growth on the agar plate was determined as the MIC. MIC values that utilized this method of MIC determination are indicated in Table 9 with a superscript letter “c.”

[6] = test system: Candida albicans ATCC 18804; assay: MIC in yeasts, NCCLS M27-A2 broth microdilution, RPMI 1640 (Table 9, letter e)
Method: Briefly, RPMI 1640 supplemented with glutamine and phenol red as a pH indicator was used in the broth microdilution method. A 96-well plate was inoculated so that the final inoculum of yeast for each well contained between 0.5×10^3 and 2.5×10^3 CFU/milliliter. […] Plates were incubated for 24 to 48 hours at 37° C. The lowest concentration of peptide that contained no visible growth was determined as the MIC. MIC values that utilized this method of MIC determination are indicated in Table 9 with a subscript letter “e.” “Peptide Number” corresponds to peptide compositions and corresponding designations in Table 3.

[7] = no superscript: NCCLS M7-A6 broth microdilution

Molecule	MIC S. aureus ([1]; ATCC 29213) [µg/mL]	MIC E. coli ([2]; ATCC 25922) [µg/mL]	MIC P. aeruginosa ([3]; ATCC 27853) [µg/mL]	MIC S. dublin (Salmonella dublin (Lane)) [µg/mL]	MIC S. epidermidis ([4]; ATCC 12228) [µg/mL]	MIC P. acnes [5]	MIC S. aureus [1, 7] [µg/mL]	MIC E. coli [2, 7] [µg/mL]	MIC P. aeruginosa [3, 7] [µg/mL]	MIC S. dublin (Salmonella dublin (Lane); [7]) [µg/mL]	MIC S. epidermidis [4, 7] [µg/mL]	MIC C. albicans ([6]; letter e: NCCLS M27-A2 broth microdilution, RPMI 1640) [e ug/mL]	MIC C. albicans ([6]; ATCC 18804) [e ug/mL]
CCCCCCCCCCCC(=O)N[C@@H](CCCNC(=N)N)C(=O)N[C@@H](CO)C(=O)N[C@@H](CCCNC(=N)N)C(=O)N[C@@H](Cc1cccc2ccccc12)C(=O)N[C@@H](CCCNC(=N)N)C(=O)N[C@@H](CC(=O)O)C(=O)N[C@H](C(=O)N[C@@H](C)C(=O)N[C@@H](CCCNC(=N)N)C(=O)N[C@@H](CC(N)=O)C(=O)N[C@@H](Cc1ccccc1)C(=O)N[C@@H](CCSC)C(=O)N[C@@H](CCCNC(=N)N)C(N)=O)C(C)C [Peptide 149, Lauryl-RSRZRDVARNFMR-NH2 Z = 1-naphthylalanine] (Lauroyl-RSR[1Nal]RDVARNFMR-NH2)	16 (≈ 8.24 µM)	64 (≈ 32.9 µM)	>64	32 (≈ 16.5 µM)	4 (≈ 2.06 µM)	32c ug/mL							
Lauryl-rsrwrdvarfm-NH2 [Peptide 115]						4c ug/mL							
CCCCCC(=O)N[C@@H](CCCNC(=N)N)C(=O)N[C@@H](CO)C(=O)N[C@@H](CCCNC(=N)N)C(=O)N[C@@H](Cc1c[nH]c2ccccc12)C(=O)N[C@@H](CCCNC(=N)N)C(=O)N[C@@H](CC(=O)O)C(=O)N[C@H](C(=O)N[C@@H](C)C(=O)N[C@@H](CCCNC(=N)N)C(=O)N[C@@H](CC(N)=O)C(=O)N[C@@H](Cc1ccccc1)C(=O)N[C@@H](CCSC)C(=O)N[C@@H](CCCNC(=N)N)C(N)=O)C(C)C [Peptide 202, Hexyl-RSRWRDVARNFMR-NH2] (Hexanoyl-RSRWRDVARNFMR-NH2)	>64			>64		>64c ug/mL							
Lauryl-dvarfm-NH2 [Peptide 125]							>64	>64	>64	>64	>64	>64	
CCCCCCCCCCCC(=O)N[C@@H](CCCNC(=N)N)C(=O)N[C@@H](CO)C(=O)N[C@@H](CCCNC(=N)N)C(=O)N[C@@H](Cc1c[nH]c2ccccc12)C(=O)N[C@@H](CCCNC(=N)N)C(=O)N[C@@H](CC(=O)O)C(=O)N[C@@H](Cc1c[nH]c2ccccc12)C(=O)N[C@@H](C)C(=O)N[C@@H](CCCNC(=N)N)C(=O)N[C@@H](CC(N)=O)C(=O)N[C@@H](Cc1c[nH]c2ccccc12)C(=O)N[C@@H](CCSC)C(=O)N[C@@H](CCCNC(=N)N)C(=O)N[C@@H](Cc1c[nH]c2ccccc12)C(=O)N[C@@H](Cc1c[nH]c2ccccc12)C(N)=O [Peptide 145, Lauryl-RSRWRDWARNWMRWW-NH2] (Lauroyl-RSRWRDWARNWMRWW-NH2)	>64	>64	>64	>64	16 (≈ 6.58 µM)								2
CCCCCCCCCCCC(=O)N[C@@H](CCCNC(=N)N)C(=O)N[C@@H](CO)C(=O)N[C@@H](CCCNC(=N)N)C(=O)N[C@@H](Cc1c[nH]c2ccccc12)C(=O)N[C@@H](CCCNC(=N)N)C(=O)N[C@@H](CC(=O)O)C(=O)N[C@@H](Cc1c[nH]c2ccccc12)C(=O)N[C@@H](C)C(=O)N[C@@H](CCCNC(=N)N)C(=O)N[C@@H](CC(N)=O)C(=O)N[C@@H](Cc1c[nH]c2ccccc12)C(=O)N[C@@H](CCSC)C(=O)N[C@@H](CCCNC(=N)N)C(=O)N[C@@H](Cc1c[nH]c2ccccc12)C(N)=O [Peptide 144, Lauryl-RSRWRDWARNWMRW-NH2] (Lauroyl-RSRWRDWARNWMRW-NH2)	32 (≈ 14.3 µM)	>64	>64	64 (≈ 28.5 µM)	8 (≈ 3.57 µM)								32
CCCCCCCCCC(=O)N[C@H](CCCNC(=N)N)C(=O)N[C@H](CO)C(=O)N[C@H](CCCNC(=N)N)C(=O)N[C@H](Cc1c[nH]c2ccccc12)C(=O)N[C@H](CCCNC(=N)N)C(=O)N[C@H](CC(=O)O)C(=O)N[C@@H](C(=O)N[C@H](C)C(=O)N[C@H](CCCNC(=N)N)C(=O)N[C@H](CC(N)=O)C(=O)N[C@H](Cc1ccccc1)C(=O)N[C@H](CC(C)C)C(=O)N[C@H](CCCNC(=N)N)C(N)=O)C(C)C [Peptide 190, Decanyl-rsrwrdvarnflr-NH2] (Decanoyl-[dR][dS][dR][dW][dR][dD][dV][dA][dR][dN][dF][dL][dR]-NH2)	8 (≈ 4.24 µM)	4 (≈ 2.12 µM)	8 (≈ 4.24 µM)		2 (≈ 1.06 µM)	4 µg/mL (≈ 2.12 µM)							
CCCCCCCCCCCC(=O)N[C@@H](CCCNC(=N)N)C(=O)N[C@@H](CO)C(=O)N[C@@H](CCCNC(=N)N)C(=O)N[C@@H](Cc1c[nH]c2ccccc12)C(=O)N[C@@H](CCCNC(=N)N)C(=O)N[C@@H](CC(=O)O)C(=O)N[C@H](C(=O)N[C@@H](C)C(=O)N[C@@H](CCCNC(=N)N)C(=O)N[C@@H](CC(N)=O)C(=O)N[C@@H](Cc1ccccc1)C(=O)N[C@@H](CCSC)C(=O)N[C@@H](CCCNC(=N)N)C(=O)N[C@@H](Cc1c[nH]c2ccccc12)C(=O)N[C@@H](Cc1c[nH]c2ccccc12)C(N)=O)C(C)C [Peptide 142, Lauryl-RSRWRDVARNFMRWW-NH2] (Lauroyl-RSRWRDVARNFMRWW-NH2)	64 (≈ 27.8 µM)	64 (≈ 27.8 µM)	>64	>64	8 (≈ 3.47 µM)								4
CCCCCCCCCCCC(=O)N[C@@H](C(=O)N[C@H](C)C(=O)N[C@H](CCCNC(=N)N)C(=O)N[C@H](CC(N)=O)C(=O)N[C@H](Cc1ccccc1)C(=O)N[C@H](CCSC)C(=O)N[C@H](CCCNC(=N)N)C(N)=O)C(C)C [Peptide 126, Lauryl-varnfmr-NH2] (Lauroyl-[dV][dA][dR][dN][dF][dM][dR]-NH2)	>64	>64	>64	>64	>64								8
CCCCCCCCCCCC(=O)N[C@H](CO)C(=O)N[C@H](CCCNC(=N)N)C(=O)N[C@H](Cc1c[nH]c2ccccc12)C(=O)N[C@H](CCCNC(=N)N)C(=O)N[C@H](CC(=O)O)C(=O)N[C@@H](C(=O)N[C@H](C)C(N)=O)C(C)C [Peptide 121, Lauryl-srwrdva-NH2] (Lauroyl-[dS][dR][dW][dR][dD][dV][dA]-NH2)	>64	>64	>64	>64	>64								>64
CCCCCCCCCCCC(=O)N[C@H](Cc1c[nH]c2ccccc12)C(=O)N[C@H](CCCNC(=N)N)C(=O)N[C@H](CC(=O)O)C(=O)N[C@@H](C(=O)N[C@H](C)C(=O)N[C@H](CCCNC(=N)N)C(=O)N[C@H](CC(N)=O)C(=O)N[C@H](Cc1ccccc1)C(=O)N[C@H](CCSC)C(=O)N[C@H](CCCNC(=N)N)C(N)=O)C(C)C [Peptide 129, Lauryl-wrdvarnfmr-NH2] (Lauroyl-[dW][dR][dD][dV][dA][dR][dN][dF][dM][dR]-NH2)	>64	>64	>64	>64	32 (≈ 20.9 µM)								>64
CCCCCCCCCCCC(=O)N[C@@H](CCCNC(=N)N)C(=O)N[C@@H](CO)C(=O)N[C@@H](CCCNC(=N)N)C(=O)N[C@@H](Cc1c[nH]c2ccccc12)C(=O)N[C@@H](CCCNC(=N)N)C(=O)N[C@@H](CC(=O)O)C(=O)N[C@H](C(=O)N[C@@H](CC(C)C)C(=O)N[C@@H](CCCNC(=N)N)C(=O)N[C@@H](CC(N)=O)C(=O)N[C@@H](Cc1ccccc1)C(=O)N[C@@H](CC(C)C)C(=O)N[C@@H](CCCNC(=N)N)C(=O)N[C@@H](CC(C)C)C(=O)N[C@@H](CC(C)C)C(N)=O)C(C)C [Peptide 138, Lauryl-RSRWRDVLRNFLRLL-NH2] (Lauroyl-RSRWRDVLRNFLRLL-NH2)	>64	>64	>64	>64	>64								2
CCCCCCCCCCCC(=O)N[C@@H](CCCNC(=N)N)C(=O)N[C@@H](CO)C(=O)N[C@@H](CCCNC(=N)N)C(=O)N[C@@H](Cc1c[nH]c2ccccc12)C(=O)N[C@@H](CCCNC(=N)N)C(=O)N[C@@H](CC(=O)O)C(=O)N[C@H](C(=O)N[C@@H](C)C(=O)N[C@@H](CCCNC(=N)N)C(=O)N[C@@H](CC(N)=O)C(=O)N[C@@H](Cc1ccccc1)C(=O)N[C@@H](CC(C)C)C(=O)N[C@@H](CCCNC(=N)N)C(N)=O)C(C)C [Peptide 135, Lauryl-RSRWRDVARNFLR-NH2] (Lauroyl-RSRWRDVARNFLR-NH2)	2 (≈ 1.05 µM)	4 (≈ 2.09 µM)	4 (≈ 2.09 µM)	2 (≈ 1.05 µM)	1 (≈ 0.523 µM)								2
